Experimental data: ChEMBL document CHEMBL1139902, “Synthesis and SAR of succinamide peptidomimetic inhibitors of cathepsin S” (Bioorg Med Chem Lett, 2007)
pKi: −log10 of the molar value.

Columns and labels:
Cathepsin K = target: T1, Cathepsin K (Homo sapiens, UniProt P43235); assay: Inhibition of cathepsin K
T1 sequence (P43235 whole entry): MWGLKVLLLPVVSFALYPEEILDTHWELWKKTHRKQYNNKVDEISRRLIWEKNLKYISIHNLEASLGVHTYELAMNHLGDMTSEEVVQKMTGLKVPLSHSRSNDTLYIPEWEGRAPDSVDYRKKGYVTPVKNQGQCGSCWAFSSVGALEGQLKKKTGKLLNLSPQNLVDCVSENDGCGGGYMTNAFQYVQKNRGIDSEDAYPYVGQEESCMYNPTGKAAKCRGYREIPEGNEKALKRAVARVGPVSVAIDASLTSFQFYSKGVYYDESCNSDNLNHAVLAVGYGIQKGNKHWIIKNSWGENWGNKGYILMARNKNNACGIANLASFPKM

[1] = Half life in Wistar rat at 10 mg/kg. po; format: ADME, organism-based; parameters: dose 10 mg/kg, route oral; settings: in vivo
[2] = Cmax in Wistar rat at 10 mg/kg. po; format: ADME, organism-based; parameters: dose 10 mg/kg, route oral; settings: in vivo
Procathepsin L = Procathepsin L (Homo sapiens, UniProt P07711); assay: Inhibition of cathepsin L
[3] = Tmax in Wistar rat at 10 mg/kg. po; format: ADME, organism-based; parameters: dose 10 mg/kg, route oral; settings: in vivo
[4] = AUC in Wistar rat at 10 mg/kg, po; format: ADME, organism-based; parameters: dose 10 mg/kg, route oral; settings: plasma
Cathepsin S = Cathepsin S (Homo sapiens, UniProt P25774)
Sequence of Cathepsin S (P25774 whole entry): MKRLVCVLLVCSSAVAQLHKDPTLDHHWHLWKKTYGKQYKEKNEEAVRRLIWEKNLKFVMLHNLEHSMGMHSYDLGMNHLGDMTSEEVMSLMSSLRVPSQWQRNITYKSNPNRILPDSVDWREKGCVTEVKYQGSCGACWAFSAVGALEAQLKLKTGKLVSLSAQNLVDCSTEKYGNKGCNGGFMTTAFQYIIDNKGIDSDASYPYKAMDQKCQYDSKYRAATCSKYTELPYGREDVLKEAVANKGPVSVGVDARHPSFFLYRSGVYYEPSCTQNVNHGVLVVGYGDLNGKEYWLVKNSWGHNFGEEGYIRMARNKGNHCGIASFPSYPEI
Description: Inhibition of cathepsin S

Sequence of Procathepsin L (P07711 whole entry): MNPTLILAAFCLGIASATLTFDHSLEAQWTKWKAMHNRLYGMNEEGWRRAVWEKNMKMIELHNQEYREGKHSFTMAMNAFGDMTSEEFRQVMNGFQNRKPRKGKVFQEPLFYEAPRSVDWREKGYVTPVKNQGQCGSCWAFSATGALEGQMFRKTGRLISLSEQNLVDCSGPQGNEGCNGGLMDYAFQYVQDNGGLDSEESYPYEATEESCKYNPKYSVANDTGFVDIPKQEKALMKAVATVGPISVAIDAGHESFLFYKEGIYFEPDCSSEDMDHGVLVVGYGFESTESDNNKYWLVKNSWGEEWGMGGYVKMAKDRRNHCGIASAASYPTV

Row | Structure (SMILES) | pKi (Cathepsin K) | half-life [1] | Cmax [2] | pKi (Procathepsin L) | Tmax [3] | AUC [4] | pKi (Cathepsin S)
1 | CC(C)[C@@H](CNc1ccc(OC(F)(F)F)cc1)NC(=O)[C@@H](CC(=O)N1CCOCC1)c1ccc(Cl)cc1 | < 4.00 | 1.82 h | 720 nM | < 4.00 | 2 h | 2.82 µM·h | 
2 | COc1ccc([C@H](CC(=O)N2CCOCC2)C(=O)N[C@H](CNc2ccc(OC(F)(F)F)cc2)C(C)C)cc1 | < 4.52 | 1.06 h | 789 nM | < 4.19 | 1 h | 2.04 µM·h | 
3 | C[C@@H](CNc1ccc(OC(F)(F)F)cc1)NC(=O)[C@H](CCC(C)(C)C)CC(=O)N1CCOCC1 | < 4.00 |  |  | < 4.00 |  |  | 
4 | C[C@@H](CN1CCc2cc(F)ccc21)NC(=O)[C@@H](CC(=O)N1CCOCC1)Cc1ccccc1 | < 4.52 |  |  | 5.05 |  |  | < 4.62
5 | Cc1ccc([C@H](CC(=O)N2CCOCC2)C(=O)N[C@H](CNc2ccc(OC(F)(F)F)cc2)C(C)C)cc1 | < 4.52 |  |  | < 4.00 |  |  | 6.87
6 | CC(C)[C@@H](CNc1ccc(OC(F)(F)F)cc1)NC(=O)[C@@H](CC(=O)N1CCOCC1)c1ccc(C(F)(F)F)cc1 | < 4.00 | 2.26 h | 946 nM | < 4.00 | 2 h | 4.63 µM·h | 7.37
7 | O=C(C[C@H](CC1CCCCC1)C(=O)N1CCOCC1)NCCNc1ccc(F)cc1 | < 4.00 |  |  | < 4.00 |  |  | < 4.00
8 | CC(C)[C@@H](CNc1ccc(OC(F)(F)F)cc1)NC(=O)[C@@H](CC(=O)N1CCOCC1)c1ccccc1C(F)(F)F | < 4.00 |  |  | < 4.00 |  |  | < 4.00
9 | C[C@@H](CN1CCc2cc(F)ccc21)NC(=O)[C@@H](CC(=O)N1CCOCC1)CC1CCCCC1 |  | 1.12 h | 24 nM |  | 0.42 h | 0.048 µM·h | 
10 | O=C(N[C@H](CNc1ccc(OC(F)(F)F)cc1)C1CC1)[C@@H](CC(=O)N1CCOCC1)c1ccc(C(F)(F)F)cc1 | < 4.00 |  |  | < 4.00 |  |  | 6.21
11 | O=C(NCCNc1ccc(F)cc1)[C@@H](CC(=O)N1CCOCC1)CC1CCCCC1 | < 4.52 |  |  | < 4.52 |  |  | 5.86
12 | O=C(NCCNc1ccc(F)cc1)[C@H](CC(=O)N1CCOCC1)CC1CCCCC1 | < 4.00 |  |  | < 4.00 |  |  | < 4.00
13 | O=C(C[C@@H](CC1CCCCC1)C(=O)N1CCOCC1)NCCNc1ccc(F)cc1 | < 4.00 |  |  | < 4.00 |  |  | 5.76
14 | O=C(N[C@@H](CCc1ccccc1)CNc1ccc(OC(F)(F)F)cc1)[C@H](CCC1CCCC1)CC(=O)N1CCOCC1 | < 4.52 |  |  | 5.64 |  |  | 6.70
15 | O=C(NCCNc1ccc(OC(F)(F)F)cc1)[C@@H](CC(=O)N1CCOCC1)CC1CCCCC1 | < 4.00 |  |  | < 4.52 |  |  | 6.71
16 | O=C(NCCN1CCc2cc(F)ccc21)[C@H](CC1CCCCC1)NC(=O)N1CCOCC1 |  | 1.12 h | 140 nM |  | 0.33 h | 0.312 µM·h | 
17 | CC(C)[C@@H](CNc1ccc(OC(F)(F)F)cc1)NC(=O)[C@H](CCC1CCCC1)CC(=O)N1CCOCC1 | < 4.58 |  |  |  |  |  | 7.96
18 | CC(C)[C@@H](CNc1ccc(OC(F)(F)F)cc1)NC(=O)[C@@H](CC(=O)N1CCOCC1)c1cccc(C(F)(F)F)c1 | < 4.00 |  |  | < 4.52 |  |  | 4.73
19 | C[C@@H](CNc1ccc(OC(F)(F)F)cc1)NC(=O)[C@@H](CC(=O)N1CCOCC1)c1ccc(C(F)(F)F)cc1 | < 4.00 |  |  | < 4.00 |  |  | 
20 | O=C(NCCNc1ccc(OC(F)(F)F)cc1)[C@@H](CC(=O)N1CCOCC1)c1ccc(C(F)(F)F)cc1 | < 4.00 |  |  |  |  |  | 
21 | O=C(N[C@H](CNc1ccc(OC(F)(F)F)cc1)c1ccccc1)[C@@H](CC(=O)N1CCOCC1)CC1CCCCC1 | < 4.52 | 1.22 h | 815 nM | 5.45 | 2 h | 2.77 µM·h | 7.21

The next lines start with the values.

Row | pKi (Cathepsin K) | half-life [1] | Cmax [2] | pKi (Procathepsin L) | Tmax [3] | AUC [4] | pKi (Cathepsin S) | Structure (SMILES)
22 | 5.63 |  |  | < 4.00 |  |  |  | C[C@@H](CNc1ccc(OC(F)(F)F)cc1)NC(=O)[C@@H](CC(=O)N1CCOCC1)CC(C)(C)C
23 | 5.83 |  |  | 6.20 |  |  | 7.74 | O=C(N[C@@H](CCc1ccccc1)CNc1ccc(OC(F)(F)F)cc1)[C@@H](CC(=O)N1CCOCC1)CC1CCCCC1
24 | 4.61 | 0.87 h | 983 nM | 4.72 | 1.5 h | 2.78 µM·h | 7.55 | C[C@@H](CNc1ccc(OC(F)(F)F)cc1)NC(=O)[C@@H](CC(=O)N1CCOCC1)CC1CCCCC1
25 | 6.04 |  |  | 6.57 |  |  |  | CC[C@@H](CNc1ccc(OC(F)(F)F)cc1)NC(=O)[C@@H](CC(=O)N1CCOCC1)CC1CCCCC1
26 | 5.27 |  |  |  |  |  | 7.16 | CS(=O)(=O)CC[C@H](CNc1ccc(OC(F)(F)F)cc1)NC(=O)[C@@H](CC(=O)N1CCOCC1)CC1CCCCC1
27 | 6.54 |  |  | 6.23 |  |  | 7.22 | CC[C@@H](CNc1ccc(OC(F)(F)F)cc1)NC(=O)[C@H](CCc1ccccc1)CC(=O)N1CCOCC1
28 | 6.25 | 1.23 h | 220 nM | 6.55 | 1.83 h | 0.752 µM·h | 7.89 | CCC[C@@H](CNc1ccc(OC(F)(F)F)cc1)NC(=O)[C@@H](CC(=O)N1CCOCC1)CC1CCCCC1
29 | 4.94 | 0.92 h | 647 nM | 4.94 | 0.7 h | 1.91 µM·h | 7.60 | CC(C)[C@@H](CNc1ccc(OC(F)(F)F)cc1)NC(=O)[C@@H](CC(=O)N1CCOCC1)c1ccccc1
30 | 5.43 | 0.68 h | 318 nM | < 4.52 | 1 h | 0.806 µM·h |  | C[C@@H](CNc1ccc(OC(F)(F)F)cc1)NC(=O)[C@@H](CC(=O)N1CCOCC1)CC1CCCC1
31 | 5.94 |  |  |  |  |  | 7.42 | CC(C)[C@@H](CNc1ccc(OC(F)(F)F)cc1)NC(=O)[C@@H](CC(=O)N1CCOCC1)CC1CCCC1
32 | 6.74 |  |  | 6.43 |  |  | 7.57 | CC(C)[C@@H](CNc1ccc(OC(F)(F)F)cc1)NC(=O)[C@H](CCc1ccccc1)CC(=O)N1CCOCC1
33 | 5.67 |  |  |  |  |  | 7.85 | CC(C)[C@@H](CNc1ccc(OC(F)(F)F)cc1)NC(=O)[C@H](CCCc1ccccc1)CC(=O)N1CCOCC1
34 | 6.59 |  |  |  |  |  | 8.30 | CS(=O)(=O)CC[C@@H](CNc1ccc(OC(F)(F)F)cc1)NC(=O)[C@@H](CC(=O)N1CCOCC1)CC1CCCCC1
35 | 6.15 |  |  |  |  |  | 7.43 | O=C(N[C@@H](CCc1ccccc1)CNc1ccc(OC(F)(F)F)cc1)[C@@H](CC(=O)N1CCOCC1)c1ccccc1
36 | 4.98 |  |  |  |  |  | 6.58 | O=C(N[C@H](CNc1ccc(OC(F)(F)F)cc1)c1ccccc1)[C@@H](CC(=O)N1CCOCC1)c1ccccc1
37 | 4.94 | 0.97 h | 629 nM | 4.94 | 1.67 h | 1.87 µM·h | 7.62 | CC(C)[C@@H](CNc1ccc(OC(F)(F)F)cc1)NC(=O)[C@@H](CC(=O)N1CCOCC1)c1ccc(F)cc1
38 | 5.43 |  |  | < 4.52 |  |  | 7.02 | C[C@@H](CNc1ccc(OC(F)(F)F)cc1)NC(=O)[C@H](CCC1CCCCC1)CC(=O)N1CCOCC1
39 | 6.66 |  |  | 5.57 |  |  | 7.92 | CCC[C@@H](CNc1ccc(OC(F)(F)F)cc1)NC(=O)[C@@H](CC(=O)N1CCOCC1)CC1CCCC1
40 | 6.00 | 1.06 h | 241 nM |  | 1.7 h | 0.831 µM·h | 7.96 | CC(C)[C@@H](CNc1ccc(OC(F)(F)F)cc1)NC(=O)[C@@H](CC(=O)N1CCOCC1)CC1CCCCC1
